Assay results as given in publication PMC11211886 (Frontiers in Pharmacology, 2024).
Several values for one entry are separate records, joined by “and”; a condition that tells them apart may be missing. Equal values may be shown once.

Assays:
[1] = tested on: CYP3A4/5; assay: Reversible CYP inhibition in HLM, CYP3A4/5 (testosterone, midazolam); assay type: in vitro ADME, human
Description: The markers used to determine the activities of CYP isoforms were phenacetin O-deethylation for CYP1A2 (probe substrate: 50 µM phenacetin), bupropion hydroxylation for CYP2B6 (probe substrate: 70 µM bupropion), paclitaxel 6α-hydroxylation for CYP2C8 (probe substrate: 10 µM paclitaxel), diclofenac 4′-hydroxylation for CYP2C9 (probe substrate: 5 µM diclofenac), S-(+)-mephenytoin 4′-hydroxylation for CYP2C19 (probe substrate: 20 µM S-(+)-mephenytoin), dextromethorphan O-demethylation for CYP2D6 (probe substrate: 6 µM dextromethorphan), chlorzoxazone 6′-hydroxylation for CYP2E1 (probe substrate: 70 µM chlorzoxazone), and testosterone 6β-hydroxylation and midazolam 1′-hydroxylation for CYP3A4/5 (probe substrate: 45 µM testosterone and 5 µM midazolam). […] Alpha-naphthoflavone (0.04 µM), 2-phenyl-2-(1-piperidinyl)propane (5 µM), quercetin (1 µM), sulfaphenazole (0.5 µM), ticlopidine (4 µM), quinidine (0.2 µM), diethyldithiocarbamate (20 µM), and ketoconazole (0.05 µM) were used as positive inhibitors of CYP1A2, 2B6, 2C8, 2C9, 2C19, 2D6, 2E1, and 3A4, respectively. The vehicle control was prepared in the same composition as inhibitor solutions but free of inhibitors. The concentrations of probe substrates were close to Km values that were determined in-house and within the range recommended by the FDA ([Huang et al., 2007]). Reaction mixtures were incubated at 37°C for 5, 20, or 30 min, depending on the probe substrates of CYP isoforms. The reactions were terminated by adding cold acetonitrile containing IS, and the terminated incubation mixtures were centrifuged at 3,000 g for 10 min before LC-MS/MS analysis.

[2] = Metabolic stability in rat liver microsomes; assay type: in vitro ADME; settings: for CLint scaled at 1 µM: pH 7.4, Predicted CL int, iv vivo
Description: (§1) FMO was deactivated by heating liver microsomes at 45°C for 5 min. […] (1) metabolic clearance is the major mechanism of clearance; (2) liver is the major organ of clearance; and (3) oxidation is the major metabolic pathway. CLint,in vitro=k / Cmicrosomes , Scaled CLint,in vivo=CLint,in vitro×microsomes yield×liver weight, where Cmicrosomes means the experimental protein concentration (0.5 mg/mL) in the incubation system.

[3] = Single-dose PK in ICR mice (IV/PO)
Description: All intravenous and oral dose formulations were analyzed by liquid chromatography coupled with tandem mass spectrometry (LC-MS/MS) to confirm test article concentration and determine formulation stability.
Animals had free access to food, and water was allowed ad libitum. […] The blood samples were collected with sodium heparin as an anticoagulant. The plasma samples were obtained from blood samples by centrifugation and stored at −80°C until analysis.
A total of eighteen mice were divided into intravenous (IV) and oral (PO) administration groups, with nine animals in each group. The mice were fasted overnight with free access to water before dosing. […] After the mice were anesthetized with isoflurane, approximately 100 μL of whole blood was collected through the retro-orbital sinus and transferred to a 1.5 mL tube containing sodium heparin. The gathered blood samples were kept on ice until centrifugation. Plasma samples were harvested by centrifugation at 1,500 g for 10 min at 4°C.
Pharmacokinetic parameters were calculated by a non-compartmental method using Thermo Kinetica® (Version 5.1 SP1, Thermo Electron Corporation, Philadelphia, Pennsylvania, United States). The area under the plasma concentration–time curve from time zero to the time of the last measurable sample (AUC0-t) or the plasma concentration–time curve from time zero to infinity (AUC0-inf) was calculated using the linear trapezoidal method.

[4] = tested on: CYP3A4/5; assay: Time-dependent CYP inhibition in HLM, CYP3A4/5; assay type: in vitro ADME, human; settings: 10 μM, 30 min pre-incubation with NADPH
Description: The procedure of time-dependent CYP inhibition was similar to that used for CYP reversible inhibition, as mentioned above, except that a pre-incubation step was added. […] Another appropriate volume of the NADPH-regenerating system and probe substrate were added to initiate the CYP isoform enzyme activity test step. For this step, the incubation period was 10 min, except for CYP2B6, CYP2C8, and CYP3A4/5 (probe substrate: midazolam), which was 3 min to make sure the reaction was under initial linear rates. After incubation for the designated time periods at 37°C, the ice-cold acetonitrile containing IS was added to quench the reaction. […] (Ainactivator/[…] represents the enzyme activity remaining due to the inhibition by the diluted inactivator in the enzyme activity test step, and (Ainactivator/[…] represents the remaining enzyme activity due to pre-incubation loss plus inhibition by the diluted inactivator in the enzyme activity test step.

[5] = Human PK projection by allometric scaling; settings: allometric scaling with correction of MLP and fu
Description: Translational prediction of human plasma total clearance (CL) and volume of distribution at steady state (Vss) was projected using the AS approach for different preclinical species (mice, rats, dogs, and monkeys). The mean value of unbound plasma fraction (fu) in animals was applied to transform pharmacokinetic parameters (Vss or CL) to the corresponding free drug clearance (CLu) and free drug volume of distribution (Vss,u). The CLu in preclinical species was scaled to CLu in humans according to the following equations with consideration of the maximum lifespan potential (MLP) as a correction factor according to the rule of exponents (RoEs) ([Mahmood and Balian, 1996]), and Vss,u in preclinical species was scaled to Vss,u in humans simply based on BW according to the following equations. Both CLu and Vss,u in humans were converted to CL and Vss using the mean value of fu in humans. CLu×MLP=a×BW^b, log (CLu×MLP)=log a+b log BW, Vss,u=a×BW^b, log (Vss,u)=log a+b log BW,
where BW represents the body weight of the standard species (0.02, 0.2, 10, 4, and 70 kg for mice, rats, dogs, cynomolgus monkeys, and humans, respectively), a represents allometric coefficients, and b is allometric exponents.

[6] = Metabolic stability in mouse liver microsomes; assay type: in vitro ADME
Description: as §1

[7] = set-up: method as in Cao et al., 2023; settings: single oral 30 mg, high-fat diet, ref Cao et al., 2023, cited from earlier work
[8] = Whole blood-to-plasma partition, human blood; assay type: in vitro ADME
Description: The whole blood and plasma samples were incubated at 37°C for up to 1 h. Serial samples (150 µL) were collected at different time points (0, 10, and 60 min) and transferred into new tubes. The whole blood samples were then centrifuged at 1700 g for 15 min to harvest plasma.

[9] = male, ICR, mouse, in vivo, iv, 2.5 mg/kg
[10] = male, ICR, mouse, in vivo, po, 10 mg/kg

C[C@H](Nc1ncnc(N)c1C#N)c1cc2ncc(Cl)n2nc1-c1ccccc1 [Amdizalisib]
enzyme activity remaining ([1]; CYP3A4_Midazolam, 0.08 μM): 93.8% and 105%
enzyme activity remaining ([1]; CYP3A4_Midazolam, 0.4 μM): 106% and 103%
enzyme activity remaining ([1]; CYP3A4_Midazolam, 2 μM): 103% and 100%
enzyme activity remaining ([1]; CYP3A4_Midazolam, 10 μM): 99.4% and 101%
enzyme activity remaining ([1]; CYP3A4_Midazolam, 50 μM): 89.1% and 86.3%
enzyme activity remaining ([1]; CYP3A4_Testosterone, 0.08 μM): 101% and 99.4%
enzyme activity remaining ([1]; CYP3A4_Testosterone, 0.4 μM): 86.1% and 90.5%
enzyme activity remaining ([1]; CYP3A4_Testosterone, 2 μM): 89.9% and 94.3%
enzyme activity remaining ([1]; CYP3A4_Testosterone, 10 μM): 83.5% and 84.8%
enzyme activity remaining ([1]; CYP3A4_Testosterone, 50 μM): 86.7% and 69.0%
IC50 ([1]; human, human liver microsomes, reversible, without pre-incubation): > 50 µM
Predicted CL sys ([2]; female rat liver microsomes, normal): 10.7 mL/min/kg
CLint scaled at 1 µM ([2]; female, rat, microsomes): 13.3 mL/min/kg
half-life at 1 µM ([2]; female, rat, microsomes, pH 7.4, in vitro t1/2): 3.12 h
CLint scaled at 1 µM ([2]; male, rat, microsomes): 65.9 mL/min/kg
half-life at 1 µM ([2]; male, rat, microsomes, pH 7.4, in vitro t1/2): 0.632 h
half-life at 1 µM ([2]; pH 7.4, male rat liver microsomes, FMO deactivation, read-out: in vitro t1/2): 0.695 h
FPO ([3]; ICR mouse, fasted, PO 10 mg/kg): 101%
AUC(0-inf) [3, 9]: 2830 ng·h/mL
AUC(0-t) [3, 9]: 2700 ng·h/mL
MRT [3, 9]: 2.12 h
Vd [3, 9]: 1.87 L/kg
clearance [3, 9]: 14.7 mL/min/kg
half-life [3, 9]: 2.06 h
AUC(0-inf) [3, 10]: 13700 ng·h/mL
AUC(0-t) [3, 10]: 10900 ng·h/mL
Cmax [3, 10]: 3080 ng/mL
MRT [3, 10]: 4.91 h
half-life [3, 10]: 4.16 h
activity loss of CYP3A4/5 ([4]; substrate midazolam): 16.9%
activity loss of CYP3A4/5 ([4]; substrate testosterone): 11.7%
predicted human CL [5]: 2.57 mL/min/kg
CLint scaled at 1 µM ([6]; female, mouse, microsomes, pH 7.4, Predicted CL int, iv vivo): 52.8 mL/min/kg
half-life at 1 µM ([6]; female, mouse, microsomes, pH 7.4, in vitro t1/2): 1.7 h
CLint scaled at 1 µM ([6]; male, mouse, microsomes, pH 7.4, Predicted CL int, iv vivo): 50.4 mL/min/kg
half-life at 1 µM ([6]; male, mouse, microsomes, pH 7.4, in vitro t1/2): 1.8 h
half-life at 1 µM ([6]; pH 7.4, female mouse liver microsomes, FMO deactivation, read-out: in vitro t1/2): 1.72 h
CLint scaled at 1 µM ([6]; pH 7.4, female mouse liver microsomes, normal, read-out: Predicted CL int, iv vivo): 53.6 mL/min/kg
median Tmax ([7]; Chinese healthy volunteers): 4 h
effect of food on extent of oral absorption (AUC) [7]: no significant effect
reduction of geometric mean of Cmax after food intake [7]: 36%
fuB ([8]; human blood, 0 min): 11.7%
RB ([8]; human, 0 min, 1 µM): 0.615
fup ([8]; human, 1 µM): 0.0720
RB ([8]; human, 10 min, 1 μM): 0.680
fuB ([8]; human, 10 min, 1 μM): 10.6%
RB ([8]; human, 60 min, 1 μM): 0.797
fuB ([8]; human, 60 min, 1 μM): 9.02%
